Biological target: T1, active p38 alpha enzyme (Upstate Biotechnology) (Homo sapiens, UniProt Q16539)
T1 construct: purchased Upstate Biotechnology
Test: p38α biochemical assay (ATP turnover, luminescent detection, Cambrex PKlight)
Details: p38α kinase; Table 1 Biological Activity
Method in brief: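 Active human p38α was incubated with full-length MapkapK2 protein as substrate and 1.4 uM ATP (final) for 2 hours at 30C. Buffer: 200 mM Tris, 100 mM MgCl2, 1.5 mM EGTA, 4 mM CaCl2, 20 mM MOPS, 1 mM EDTA, 1% glycerol, 0.1% β-mercaptoethanol, 1 mg/ml BSA. Total ATP turnover read by luminescence.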

T1 sequence (Q16539 whole entry): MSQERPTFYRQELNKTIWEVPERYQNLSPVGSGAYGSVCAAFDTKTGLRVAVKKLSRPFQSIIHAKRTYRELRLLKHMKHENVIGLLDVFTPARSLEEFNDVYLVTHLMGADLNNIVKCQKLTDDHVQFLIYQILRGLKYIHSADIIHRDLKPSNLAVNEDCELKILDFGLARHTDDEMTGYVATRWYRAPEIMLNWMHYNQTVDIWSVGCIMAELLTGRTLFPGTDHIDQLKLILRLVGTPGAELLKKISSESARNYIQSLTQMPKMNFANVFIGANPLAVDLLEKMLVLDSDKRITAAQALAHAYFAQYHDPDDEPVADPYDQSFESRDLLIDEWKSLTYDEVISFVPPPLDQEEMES

| Compound | IC50 [nM] |
| --- | --- |
| Cc1nc(-c2ccc(F)cc2)c(-c2nc(C(=O)N3CCC(O)(O)CC3)cs2)s1 [Example 1886] | > 1000 |
| CCOC(=O)C1CCN(C(=O)c2csc(-c3sc(C)nc3-c3ccc(F)cc3)n2)CC1 [Example 1887] | > 1000 |
| CCOC(=O)N1CCN(C(=O)c2csc(-c3sc(C)nc3-c3ccc(F)cc3)n2)CC1 [Example 1889] | > 1000 |
| Cc1nc(-c2ccc(F)cc2)c(-c2nc(C(=O)N(CCC#N)Cc3cccnc3)cs2)s1 [Example 1891] | > 1000 |
| Cc1nc(-c2ccc(F)cc2)c(-c2nc(C(=O)N3CCN(c4ccccc4)CC3)cs2)s1 [Example 1892] | > 1000 |
| Cc1nc(-c2ccc(F)cc2)c(-c2nc(C(=O)N3CCN(c4ccccn4)CC3)cs2)s1 [Example 1893] | > 1000 |
| Cc1nc(-c2ccc(F)cc2)c(-c2nc(C(=O)N(CCO)[C@H](C)c3ccccc3)cs2)s1 [Example 1895] | > 1000 |
| Cc1nc(-c2ccc(F)cc2)c(-c2nc(C(=O)N(C)CC(O)c3ccc(O)cc3)cs2)s1 (stereo not drawn) [Example 1897] | > 1000 |
| Cc1nc(-c2ccc(F)cc2)c(-c2nc(C(=O)N3CCN(C4CCCCC4)CC3)cs2)s1 [Example 1898] | > 1000 |
| Cc1nc(-c2ccc(F)cc2)c(-c2nc(C(=O)N3CCN(Cc4ccccc4)CC3)cs2)s1 [Example 1900] | > 1000 |
| Cc1nc(-c2ccc(F)cc2)c(-c2nc(C(=O)N3CCN(c4ccc(O)cc4)CC3)cs2)s1 [Example 1902] | > 1000 |
| Cc1nc(-c2ccc(F)cc2)c(-c2nc(C(=O)N(CCN(C)C)Cc3ccccc3)cs2)s1 [Example 1903] | > 1000 |
| Cc1nc(-c2ccc(F)cc2)c(-c2nc(C(=O)N3CCN(CC4CCCCC4)CC3)cs2)s1 [Example 1906] | > 1000 |
| Cc1nc(-c2ccc(F)cc2)c(-c2nc(C(=O)N3CCN(C(=O)OC(C)(C)C)CC3)cs2)s1 [Example 1909] | > 1000 |
| Cc1nc(-c2ccc(F)cc2)c(-c2nc(C(=O)N3CCN(c4ccccc4C#N)CC3)cs2)s1 [Example 1911] | ≤ 1000 |
| Cc1nc(-c2ccc(F)cc2)c(-c2nc(C(=O)N3CCN(c4cccc(C)c4C)CC3)cs2)s1 [Example 1913] | > 1000 |
| Cc1cccc(N2CCN(C(=O)c3csc(-c4sc(C)nc4-c4ccc(F)cc4)n3)CC2C)c1 (stereo not drawn) [Example 1915] | ≤ 1000 |

| Compound | IC50 [nM] |
| --- | --- |
| Cc1nc(-c2ccc(F)cc2)c(-c2nc(C(=O)N3CCN(c4ccc(C)c(C)c4)CC3)cs2)s1 [Example 1917] | > 1000 |
| Cc1ccc(C)c(N2CCN(C(=O)c3csc(-c4sc(C)nc4-c4ccc(F)cc4)n3)CC2)c1 [Example 1919] | > 1000 |
| COc1ccccc1N1CCN(C(=O)c2csc(-c3sc(C)nc3-c3ccc(F)cc3)n2)CC1 [Example 1921] | > 1000 |
| COc1cccc(N2CCN(C(=O)c3csc(-c4sc(C)nc4-c4ccc(F)cc4)n3)CC2)c1 [Example 1922] | > 1000 |
| Cc1nc(-c2ccc(F)cc2)c(-c2nc(C(=O)N3CCN(c4cccc(Cl)c4)CC3)cs2)s1 [Example 1924] | > 1000 |
| Cc1nc(-c2ccc(F)cc2)c(-c2nc(C(=O)N3CCN(c4ccc(Cl)cc4)CC3)cs2)s1 [Example 1925] | > 1000 |
| Cc1nc(-c2ccc(F)cc2)c(-c2nc(C(=O)N(Cc3cccnc3)Cc3cccnc3)cs2)s1 [Example 1928] | > 1000 |
| Cc1nc(-c2ccc(F)cc2)c(-c2nc(C(=O)N3CCN(CCN4CCOCC4)CC3)cs2)s1 [Example 1929] | > 1000 |
| Cc1nc(-c2ccc(F)cc2)c(-c2nc(C(=O)N3CCC(N(C)C(=O)OC(C)(C)C)C3)cs2)s1 (stereo not drawn) [Example 1930] | > 1000 |
| CC(=O)c1ccc(N2CCN(C(=O)c3csc(-c4sc(C)nc4-c4ccc(F)cc4)n3)CC2)cc1 [Example 1931] | > 1000 |
| CCN(CC)CCN(Cc1ccccc1)C(=O)c1csc(-c2sc(C)nc2-c2ccc(F)cc2)n1 [Example 1932] | > 1000 |
| Cc1nc(-c2ccc(F)cc2)c(-c2nc(C(=O)N3CCN(c4ccc([N+](=O)[O-])cc4)CC3)cs2)s1 [Example 1933] | > 1000 |
| Cc1nc(-c2ccc(F)cc2)c(-c2nc(C(=O)N3CCN(c4cc(Cl)ccc4C)CC3)cs2)s1 [Example 1935] | > 1000 |
| COc1cc(CN(C)C(=O)c2csc(-c3sc(C)nc3-c3ccc(F)cc3)n2)cc(OC)c1OC [Example 1936] | ≤ 1000 |
| Cc1nc(-c2ccc(F)cc2)c(-c2nc(C(=O)N(C)C(Cc3ccccc3)c3ccccc3)cs2)s1 (stereo not drawn) [Example 1939] | > 1000 |
| CCN(C(=O)c1csc(-c2sc(C)nc2-c2ccc(F)cc2)n1)C(Cc1ccccc1)c1ccco1 (stereo not drawn) [Example 1942] | > 1000 |

The next lines start with the values.

| IC50 [nM] | Compound |
| --- | --- |
| > 1000 | CCOC(=O)C1CCCN(C(=O)c2csc(-c3sc(C)nc3-c3ccc(F)cc3)n2)C1 (stereo not drawn) [Example 1888] |
| > 1000 | CCCCN(Cc1ccccc1)C(=O)c1csc(-c2sc(C)nc2-c2ccc(F)cc2)n1 [Example 1894] |
| > 1000 | Cc1nc(-c2ccc(F)cc2)c(-c2nc(C(=O)N(CCCO)Cc3ccccn3)cs2)s1 [Example 1896] |
| > 1000 | Cc1nc(-c2ccc(F)cc2)c(-c2nc(C(=O)N3CCC(Cc4ccccc4)CC3)cs2)s1 [Example 1899] |
| > 1000 | Cc1nc(-c2ccc(F)cc2)c(-c2nc(C(=O)N3CCCN(Cc4ccccc4)CC3)cs2)s1 [Example 1901] |
| > 1000 | Cc1nc(-c2ccc(F)cc2)c(-c2nc(C(=O)N3CCN(c4ccccc4F)CC3)cs2)s1 [Example 1904] |
| > 1000 | Cc1nc(-c2ccc(F)cc2)c(-c2nc(C(=O)N3CCN(c4ccc(F)cc4)CC3)cs2)s1 [Example 1905] |
| > 1000 | Cc1nc(-c2ccc(F)cc2)c(-c2nc(C(=O)N(C)C[C@H](O)c3ccc(O)c(O)c3)cs2)s1 [Example 1907] |
| ≤ 1000 | CCOC(=O)CC1C(=O)NCCN1C(=O)c1csc(-c2sc(C)nc2-c2ccc(F)cc2)n1 (stereo not drawn) [Example 1908] |
| > 1000 | Cc1nc(-c2ccc(F)cc2)c(-c2nc(C(=O)N3CCC(NC(=O)OC(C)(C)C)C3)cs2)s1 (stereo not drawn) [Example 1910] |
| > 1000 | Cc1nc(-c2ccc(F)cc2)c(-c2nc(C(=O)N3CCN(c4ccc(C#N)cn4)CC3)cs2)s1 [Example 1912] |
| > 1000 | Cc1nc(-c2ccc(F)cc2)c(-c2nc(C(=O)N3CCN(CCc4ccccc4)CC3)cs2)s1 [Example 1916] |
| > 1000 | Cc1ccc(N2CCN(C(=O)c3csc(-c4sc(C)nc4-c4ccc(F)cc4)n3)CC2)c(C)c1 [Example 1918] |
| > 1000 | COc1ccc(N2CCN(C(=O)c3csc(-c4sc(C)nc4-c4ccc(F)cc4)n3)CC2)cc1 [Example 1920] |
| > 1000 | COc1ccc(CCN(C)C(=O)c2csc(-c3sc(C)nc3-c3ccc(F)cc3)n2)cc1OC [Example 1923] |
| > 1000 | Cc1nc(-c2ccc(F)cc2)c(-c2nc(C(=O)N3CCN(c4ccc(F)cc4F)CC3)cs2)s1 [Example 1927] |
| > 1000 | Cc1nc(-c2ccc(F)cc2)c(-c2nc(C(=O)N(C)Cc3cccc4ccccc34)cs2)s1 [Example 1934] |
| > 1000 | Cc1nc(-c2ccc(F)cc2)c(-c2nc(C(=O)N(CCc3ccccc3)Cc3ccccc3)cs2)s1 [Example 1937] |
| > 1000 | Cc1nc(-c2ccc(F)cc2)c(-c2nc(C(=O)N3CCC(O)(c4ccc(Cl)cc4)CC3)cs2)s1 [Example 1940] |
| > 1000 | C#CCN(Cc1ccc(Cl)cc1Cl)C(=O)c1csc(-c2sc(C)nc2-c2ccc(F)cc2)n1 [Example 1941] |
| > 1000 | Cc1nc(-c2ccc(F)cc2)c(-c2nc(C(=O)N3CCN(C(=O)OC(C)(C)C)C[C@H]3CO)cs2)s1 [Example 1943] |

— patent US20060252807A1, “Novel ortho-terphenyl inhibitors of p38 kinase and methods of treating inflammatory disorders” (Kalypsys, Inc., priority 2005, published 2006)
